Assay results as given in doi:10.1101/2025.07.20.665728 (bioRxiv, 2025).

Legend:
Type in all cases: cell-based
MAIT cells in human PBMC = test: MAIT cell proliferation in CTV-labeled PBMCs; settings: day 7, 5-OP-RU 10 μM, RF ligands 100 μM
C1R.MR1 cells = test: Endo H treatment and western blot of intracellular MR1; settings: C1R.MR1, 16 h; RF and catabolites 100 μM, Ac-6-FP 10 μM
Protocol: The downregulation of MR1 on the cell surface by the RF catabolites could be due to the depletion of the intracellular ER-resident MR1 pool, or by retention of MR1 in the ER, as shown for the DB28 ligand ([Salio et al., 2020]). To investigate this, C1R.MR1 cells were treated for 16 h with 100 μM of RF or RF catabolites, conditions which induce MR1 downregulation (Fig. 3A). Cells were lysed, and treated with endoglycosidase (Endo) H, to distinguish molecules that remain within the ER from those that have trafficked to the cell surface ([McWilliam et al., 2016]), then MR1 levels were assessed by immunoblotting (Fig. 3A).
Figure 3. […] S, Endo H–susceptible MR1; R, Endo H–resistant MR1. The Endo H–susceptible MR1 and Endo H–resistant MR1 fractions were quantified in at least two independent experiments. (b) Intracellular total MR1 level was also measured in C1R.MR1 cells by flow cytometry after treating the cells with the indicated ligands (100 μM) for 16h followed by permeabilization and staining with anti-MR1-PE (8F2.F9). Shown are the overlay histograms (top) and a bar chart depicting the geometric mean fluorescence intensity (gMFI) fold change of intracellular MR1 level (bottom) from three independent experiments performed in duplicates, with standard error (SEM) represented by the error bars. […]

THP-1.MR1 cells = test: Competition with Ac-6-FP-induced MR1 upregulation, THP-1.MR1; settings: 1–200 μM overnight, then 10 μM Ac-6-FP 3 h

Row | Compound | MAIT cell proliferation (MAIT cells in human PBMC) | Endo H-resistant MR1 (C1R.MR1 cells) | effect on Ac-6-FP-induced cell surface upregulation of MR1 (THP-1.MR1 cells)
1 | Cc1cc2nc3[nH]c(=O)[nH]c(=O)c3nc2cc1C [Lumichrome, 7,8-dimethylalloxazine] | significantly reduced MAIT cell proliferation | – | –
2 | Cc1cc2nc3c(=O)[nH]c(=O)nc-3n(C[C@H](O)[C@H](O)[C@H](O)CO)c2cc1C [RF, Riboflavin] | – | Neither RF nor its catabolites induced any Endo H-resistant MR1 | did not modulate
